# Measurements from patent publication US11130769B2 (Prelude Therapeutics Incorporated, priority 2018, dated 2021).
# Where two headings read alike, the source gives them in different places.
# Tests used:
# MCL-1 = MCL-1 (Homo sapiens (Human), UniProt Q07820); assay: Cell free Mcl-1:Bim affinity assay (fluorescence polarization competition); format: binding; details: 15 nM MCL-1, 5 nM FITC-Bim, 1 hour at room temperature, read-out: BIM_Ki
# Method: The binding affinity of each compound was measured via a fluorescence polarization competition assay, in which the compound competes for the same binding site with the ligand, and thus leads to a dose-dependent anisotropy reduction. The tracer ligand utilized was a fluorescein isothiocyanate labelled peptide (FITC-[…]) derived from Bim (GenScript).
# The assay was carried out in black half-area 96-well NBS plate (Corning), containing 15 nM of MCL-1 (BPS Bioscience), 5 nM of FITC-Bim and 3-fold serial diluted test compounds in a total volume of 50 μL of assay buffer (20 mM HEPES, 50 mM NaCl, 0.002% Tween 20, 1 mM TCEP, and 1% DMSO). The reaction plate was incubated for 1 hour at room temperature. The change of anisotropy is measured with an Envision multimode plate reader (PerkinElmer) at emission wavelength 535 nm. Fluorescence polarization was calculated in mP unit and the percentage inhibition was calculated by % inhibition=100×(mPDMSO−mP)/(mPDMSO−mPPC), in which mPDMSO is the DMSO control, and mPpc is the positive control. IC50 values were determined from a 10-point dose response curve by fitting the percent inhibition against compound concentration using the GraphPad Prism software. The inhibition constant Ki was subsequently calculated according to the Nikolovska-Coleska's equation (Anal. Biochem., 2004, 332, 261),
# [formula] • where [I]50 is the concentration of the free inhibitor at 50% inhibition, [L]50 is the concentration of the free labeled ligand at 50% inhibition, [P]0 is the concentration of the free protein at 0% inhibition, and Kd is the dissociation constant of the protein-ligand complex. See Table F. Caspase 3/7 Activity Assay
# H929 cells = assay: Cell viability assay (H929 10 FBS); format: cell-based; details: Homo sapiens, NCI-H929, 24 hours, read-out: H929_10FBS IC50
# Method: Cell Viability Assay (H929 10 FBS)
# Dispense 10 μL aliquot of prepared H929 cells (1:1 ratio of cells:Trypan Blue (#1450013, Bio-Rad)) onto cell counting slide (#145-0011, Bio-Rad) and obtain cell density and cell viability using cell counter (TC20, Bio-Rad). Remove appropriate volume of resuspended cells from culture flask to accommodate 4000 cells/well @ 10 μL/well. Transfer H929 cells to 50 mL conical (#430290, Corning). Spin down at 1000 rpm for 5 min using tabletop centrifuge (SPINCHRON 15, Beckman). Discard supernatant and resuspend cell pellet in modified RPMI 1640 (#10-040-CV, Corning) cell culture media containing 10% FBS (F2422-500 ML, Sigma), sodium pyruvate (100 mM) (#25-000-CL, Corning), HEPES buffer (1 M) (#25-060-CL, Corning) and glucose (200 g/L) (A24940-01, Gibco) to a cell density of 400,000 cells/mL. Dispense 10 μL of resuspended H929 cells per well in 384-well small volume TC treated plate (#784080, Greiner Bio-one) using standard cassette (#50950372, Thermo Scientific) on Multi-drop Combi (#5840310, Thermo Scientific) in laminar flow cabinet. Dispense compounds onto plates using digital liquid dispenser (D300E, Tecan). Incubate plates in humidified tissue culture incubator @ 37° C. for 24 hours. Add 10 μL of prepared CellTiTer-Glo® detection buffer (G7570, Promega) or ATPlite 1 Step detection reagent (#6016731, Perkin Elmer) to each well of 384-well plate using small tube cassette (#24073295, Thermo Scientific) on Combi multi drop, incubate @ RT for 30-60 min. Read plates with microplate reader (PheraStar, BMG Labtech) using 384 well luminescence mode.
# Sequence of MCL-1 (Q07820 whole entry): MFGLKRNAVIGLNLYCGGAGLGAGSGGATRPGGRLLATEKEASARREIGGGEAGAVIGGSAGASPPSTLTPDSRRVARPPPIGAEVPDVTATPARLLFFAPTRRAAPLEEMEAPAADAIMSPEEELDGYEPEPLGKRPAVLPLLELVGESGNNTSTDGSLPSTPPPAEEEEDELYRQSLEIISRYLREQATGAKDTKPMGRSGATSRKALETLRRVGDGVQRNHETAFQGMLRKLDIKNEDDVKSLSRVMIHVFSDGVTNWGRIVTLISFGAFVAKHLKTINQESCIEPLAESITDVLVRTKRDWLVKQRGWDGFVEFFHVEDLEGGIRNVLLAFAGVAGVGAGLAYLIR
SMILES,Ki (MCL-1; class symbols) [nM],IC50 (H929 cells) [nM],Ki (MCL-1; numeric values) [nM]
"CO[C@@H]1/C=C/COC2(CCC2)C(=O)NS(=O)(=O)c2ccc3c(c2)N(C[C@@H]2CC[C@H]21)C[C@@]1(CCCc2cc(Cl)ccc21)CO3 [Example 31, (3R,6R,7R,8E,22S)-6′-Chloro-7-methoxy-12,12-(1,3-propylene)-15,15-dioxo-spiro[11,20-dioxa-15-thia-1,14-diazatetracyclo[14.7.2.03,6.019,24]pentacosa[8,16(25),17,19(24)]tetraene-22,1′-tetralin]-13-one]",1 to 100,> 1000,–
"CC1(C)OC/C=C/[C@@H](OCCN2CCCC2)[C@@H]2CC[C@H]2CN2C[C@@]3(CCCc4cc(Cl)ccc43)COc3ccc(cc32)S(=O)(=O)NC1=O [Example 274, (3R,6R,7R,8E,22S)-6′-Chloro-12,12-dimethyl-15,15-dioxo-7-(2-pyrrolidin-1-ylethoxy)spiro[11,20-dioxa-15-thia-1,14-diazatetracyclo[14.7.2.03,6.019,24]pentacosa-8,16,18,24-tetraene-22,1′-tetralin]-13-one]",< 1,< 1000,–
COC1CN(C(=O)O[C@H]2/C=C/COC(C)(C)C(=O)NS(=O)(=O)c3ccc4c(c3)N(C[C@@H]3CC[C@H]32)C[C@@]2(CCOc3cc(Cl)ccc32)CO4)C1 [Example 309],–,< 1000,–
CO[C@H]1/C=C/CN2CCC[C@H]2C(=O)NS(=O)(=O)c2ccc3c(c2)N(C[C@@H]2CC[C@H]21)C[C@@]1(CCCc2cc(Cl)ccc21)CO3 [Example 100],–,> 1000,–
"O=C(NS(=O)(=O)c1ccc2c(c1)N(CC1CCC1)C[C@@]1(CCCc3cc(Cl)ccc31)CO2)OCc1ccccc1 (stereo in doubt) [Example 14, Benzyl N-[6′-chloro-5-(cyclobutylmethyl)spiro[2,4-dihydro-1,5-benzoxazepine-3,1′-tetralin]-7-yl]sulfonylcarbamate]",–,–,222
"O=C(NS(=O)(=O)c1ccc2c(c1)N(CC1CCC1)CC1(CCCc3cc(Cl)ccc31)CO2)c1ccc(Cl)cc1 (stereo not shown) [Example 7, 4-Chloro-N-[6′-chloro-5-(cyclobutylmethyl)spiro[2,4-dihydro-1,5-benzoxazepine-3,1′-tetralin]-7-yl]sulfonyl-benzamide]",–,–,227
CCOC(=O)N(C)[C@@H]1/C=C/COC(C)(C)C(=O)NS(=O)(=O)c2ccc3c(c2)N(C[C@@H]2CC[C@H]21)C[C@@]1(CCCc2cc(Cl)ccc21)CO3 [Example 252],–,> 1000,–
CN(C)CCN(C)C(=O)O[C@H]1/C=C/COC(C)(C)C(=O)NS(=O)(=O)c2ccc3c(c2)N(C[C@@H]2CC[C@H]21)C[C@@]1(CCOc2cc(Cl)ccc21)CO3 [Example 307],–,< 500,–
"CO[C@@H]1/C=C/CN(C)C(=O)NS(=O)(=O)c2ccc3c(c2)N(C[C@@H]2CC[C@H]21)C[C@@]1(CCCc2cc(Cl)ccc21)CO3 [Example 108, (3R,6R,7R,8E,21S)-6′-Chloro-7-methoxy-11-methyl-14,14-dioxo-spiro[19-oxa-14-thia-1,11,13-triazatetracyclo[3.7.2.03,6.018,23]tetracosa-8,15,17,23-tetraene-21,1′-tetralin]-12-one]",–,> 1000,–

# Next, values leading:
Ki (MCL-1; class symbols) [nM],IC50 (H929 cells) [nM],Ki (MCL-1; numeric values) [nM],SMILES
< 1,< 500,–,"[2H]C([2H])([2H])N1C/C=C/[C@H](OC(=O)N(C)C)[C@@H]2CC[C@H]2CN2C[C@@]3(CCCc4cc(Cl)ccc43)COc3ccc(cc32)S(=O)(=O)NC(=O)C1(C)C [Example 45, [(3R,6R,7S,8E,22S)-6′-Chloro-12,12-dimethyl-13,15,15-trioxo-11-(trideuteriomethyl)spiro[20-oxa-15-thia-1,11,14-triazatetracyclo[14.7.2.03,6.019,24]pentacosa-8,16,18,24-tetraene-22,1′-tetralin]-7-yl] N,N-dimethylcarbamate]"
< 1,< 500,–,"CN(C)[C@@H]1CCN(C(=O)O[C@H]2/C=C/COC(C)(C)C(=O)NS(=O)(=O)c3ccc4c(c3)N(C[C@@H]3CC[C@H]32)C[C@@]2(CCCc3cc(Cl)ccc32)CO4)C1 [Example 53, [(3R,6R,7S,8E,22S)-6′-Chloro-12,12-dimethyl-13,15,15-trioxo-spiro[11,20-dioxa-15-thia-1,14-diazatetracyclo[14.7.2.03,6.019,24]pentacosa-8,16,18,24-tetraene-22,1′-tetralin]-7-yl] (3R)-3-(dimethylamino)pyrrolidine-1-carboxylate]"
< 1,< 500,–,"C[C@@H]1CN(C(=O)O[C@H]2/C=C/COC(C)(C)C(=O)NS(=O)(=O)c3ccc4c(c3)N(C[C@@H]3CC[C@H]32)C[C@@]2(CCCc3cc(Cl)ccc32)CO4)CCN1 [Example 175, [(3R,6R,7S,8E,22S)-6′-Chloro-12,12-dimethyl-13,15,15-trioxo-spiro[11,20-dioxa-15-thia-1,14-diazatetracyclo[14.7.2.03,6.019,24]pentacosa-8,16,18,24-tetraene-22,1′-tetralin]-7-yl] (3R)-3-methylpiperazine-1-carboxylate]"
< 1,< 500,–,"CN1CCCN(C(=O)O[C@H]2/C=C/COC(C)(C)C(=O)NS(=O)(=O)c3ccc4c(c3)N(C[C@@H]3CC[C@H]32)C[C@@]2(CCCc3cc(Cl)ccc32)CO4)CC1 [Example 54, [(3R,6R,7S,8E,22S)-6′-Chloro-12,12-dimethyl-13,15,15-trioxo-spiro[11,20-dioxa-15-thia-1,14-diazatetracyclo[14.7.2.03,6.019,24]pentacosa-8,16,18,24-tetraene-22,1′-tetralin]-7-yl] 4-methyl-1,4-diazepane-1-carboxylate]"
< 1,< 500,–,"CCN1C/C=C/[C@H](OC(=O)N2CCC(OC)CC2)[C@@H]2CC[C@H]2CN2C[C@@]3(CCCc4cc(Cl)ccc43)COc3ccc(cc32)S(=O)(=O)NC(=O)C1(C)C [Example 222, [(3R,6R,7S,8E,22S)-6′-Chloro-11-ethyl-12,12-dimethyl-13,15,15-trioxo-spiro[20-oxa-15-thia-1,11,14-triazatetracyclo[14.7.2.03,6.019,24]pentacosa-8,16,18,24-tetraene-22,1′-tetralin]-7-yl] 4-methoxypiperidine-1-carboxylate]"
< 1,< 500,–,"O=C(N[C@H]1CCOC1)O[C@H]1/C=C/COC2(CCC2)C(=O)NS(=O)(=O)c2ccc3c(c2)N(C[C@@H]2CC[C@H]21)C[C@@]1(CCCc2cc(Cl)ccc21)CO3 [Example 237, [(3R,6R,7S,8E,22S)-6′-Chloro-12,12-(1,3-propylene)-13,15,15-trioxo-spiro[11,20-dioxa-15-thia-1,14-diazatetracyclo[14.7.2.03,6.019,24]pentacosa-8,16(25),17,19(24)-tetraene-22,1′-tetralin]-7-yl] N-[(3S)-tetrahydrofuran-3-yl]carbamate]"
–,< 500,–,CN(C)C1CN(C(=O)O[C@H]2/C=C/COC(C)(C)C(=O)NS(=O)(=O)c3ccc4c(c3)N(C[C@@H]3CC[C@H]32)C[C@@]2(CCOc3cc(Cl)ccc32)CO4)C1 [Example 311]
–,< 500,–,CCO[C@@H]1CCN(C(=O)O[C@H]2/C=C/COC(C)(C)C(=O)NS(=O)(=O)c3ccc4c(c3)N(C[C@@H]3CC[C@H]32)C[C@@]2(CCOc3cc(Cl)ccc32)CO4)C1 [Example 308]
–,< 500,–,CN(C)[C@@H]1CCN(C(=O)O[C@H]2/C=C/COC(C)(C)C(=O)NS(=O)(=O)c3ccc4c(c3)N(C[C@@H]3CC[C@H]32)C[C@@]2(CCOc3cc(Cl)ccc32)CO4)C1 [Example 310]
–,< 500,–,CN1C/C=C/[C@H](OC(=O)NC2CC2)[C@@H]2CC[C@H]2CN2C[C@@]3(CCCc4cc(Cl)ccc43)COc3ccc(cc32)S(=O)(=O)NC(=O)C1(C)C [Example 206]
–,< 500,–,CN(C)C[C@H]1CCCN1C(=O)O[C@H]1/C=C/COC(C)(C)C(=O)NS(=O)(=O)c2ccc3c(c2)N(C[C@@H]2CC[C@H]21)C[C@@]1(CCCc2cc(Cl)ccc21)CO3 [Example 169]
